Test [1] in a line: Inhibition of recombinant VIM-2.
A short description of test [2]: Inhibition of recombinant GIM-1.

Take `CC(=O)OCC1=C(C(=O)O)N2C(=O)[C@@H](N(O)C=O)[C@H]2SC1`: the IC50 in test [1] is 10 µM; in test [2], 0.3 µM.

On to `CC(=O)OCC1=C(C(=O)O)N2C(=O)/C(=N/O)[C@H]2SC1`, for which the IC50 in test [1] is 10 µM; in test [2], 15 µM.

For `CC(=O)OCC1=C(C(=O)O)N2C(=O)/C(=N/O)[C@H]2S(=O)(=O)C1`, the IC50 in test [1] was found to be 270 µM; in test [2], 170 µM.

Turning to `CC1=C(C(=O)O)N2C(=O)/C(=N/O)[C@H]2S(=O)(=O)C1`, the IC50 in test [1] is 25 µM; in test [2], more than 500 µM.

Turning to `CC(=O)OCC1=C(C(=O)O)N2C(=O)[C@@H](NO)[C@H]2SC1`, the IC50 in test [1] turned out to be 9 µM; in test [2] it was 2 µM.

Regarding `CC(=O)OCC1=C(C(=O)O)N2C(=O)[C@@H](N(O)C(=O)Cc3ccccc3)[C@H]2SC1`, the IC50 turned out to be 2 µM in test [1] and 0.3 µM in test [2].

Take `CC(=O)OCC1=C(C(=O)O)N2C(=O)[C@@H](NC=O)[C@H]2SC1`: the figures for the IC50 in test [1] and in test [2] were 35 µM and 47 µM, respectively.

The term IC50 denotes the midpoint of a concentration-inhibition curve.
